Patent US5191079A, “Quinolinecarboxylic acid derivatives” (priority 1990, dated 1993)
Values after ≈ are worked out from the molar mass of the structure shown.

What was measured:
Format in all cases: cell-based
[1] = tested on: Staphylococcus aureus ATCC 9144; assay: MIC, Experiment 1; details: ATCC9144, S. aureus ATCC 9144, Gram +, read-out: Min. inhib. concentr. (MIC)
Description: (§1) The compounds of the present invention (B, E, G, H, M, N, O, P and Q) were each dissolved in dimethylsulfoxide to prepare a solution of 5000 μg/ml in concentration. The compounds of the present invention (I, J and K) and the known compound (Y) were each dissolved in sterilized distilled water to prepare a solution of 5000 μg/ml in concentration. Each solution was diluted with sterilized distilled water to prepare a standard solution with a concentration of each test compound: 1000 μg/ml. The test was carried out by a method as appointed by Japan Society of Chemotherapy [cf. Chemotherapy, 29, 76-79 (1981), TOKYO].
(§2) As to Streptococcus pneumoniae and Streptococcus pyogenes, Brain heart infusion broth (manufactured by DIFCO) was used as the medium for the preculture thereof, and a heart infusion agar medium containing 5% defibrinated horse blood (manufactured by Nissui Seiyaku K. K., Japan) was used as the medium for the measurement of minimum inhibitory concentration (MIC). As to other microorganisms, a sensitivity test broth (manufactured by Nissui Seiyaku K. K.) was used as the medium for the preculture thereof, and a sensitivity test agar medium (manufactured by Nissui Seiyaku K. K.) was used as the medium for the measurement of MIC.

[2] = tested on: Bacillus subtilis ATCC 6633; assay: MIC, Experiment 1; details: ATCC6633, B. subtilis ATCC 6633, Gram +, read-out: Min. inhib. concentr. (MIC)
Description: as §1, §2

Enterobacter cloacae 963 = assay: MIC, Experiment 1; details: E. cloacae 963, Gram -, read-out: Min. inhib. concentr. (MIC)
Description: as §1, §2

[3] = tested on: Streptococcus pyogenes Sv; assay: MIC, Experiment 1; details: S. pyogenes Sv, Gram +, agar with 5% defibrinated horse blood, read-out: Min. inhib. concentr. (MIC)
Description: as §1, §2

[4] = tested on: Pseudomonas aeruginosa NCTC 10490; assay: MIC, Experiment 1; details: NCTC10490, P. aeruginosa NCTC 10490, Gram -, read-out: Min. inhib. concentr. (MIC)
Description: as §1, §2

[5] = tested on: Staphylococcus aureus IID 803; assay: MIC, Experiment 1; details: IID803, S. aureus IID 803, Gram +, read-out: Min. inhib. concentr. (MIC)
Description: as §1, §2

[6] = tested on: Staphylococcus aureus Terajima (IID 670); assay: MIC, Experiment 1; details: IID670, S. aureus Terajima (IID 670), Gram +, read-out: Min. inhib. concentr. (MIC)
Description: as §1, §2

[7] = tested on: Klebsiella pneumoniae PCI-602; assay: MIC, Experiment 1; details: PCI602, K. pneumoniae PCI-602, Gram -, read-out: Min. inhib. concentr. (MIC)
Description: as §1, §2

[8] = tested on: Micrococcus luteus ATCC 9341; assay: MIC, Experiment 1; details: ATCC9341, M. luteus ATCC 9341, Gram +, read-out: Min. inhib. concentr. (MIC)
Description: as §1, §2

[9] = tested on: Streptococcus pyogenes Cook; assay: MIC, Experiment 1; details: S. pyogenes Cook, Gram +, agar with 5% defibrinated horse blood, read-out: Min. inhib. concentr. (MIC)
Description: as §1, §2

[10] = tested on: Escherichia coli NIHJ JC-2; assay: MIC, Experiment 1; details: NIHJJC2, E. coli NIHJ JC-2, Gram -, read-out: Min. inhib. concentr. (MIC)
Description: as §1, §2

[11] = tested on: Streptococcus pyogenes Su; assay: MIC, Experiment 1; details: S. pyogenes Su, Gram +, agar with 5% defibrinated horse blood, read-out: Min. inhib. concentr. (MIC)
Description: as §1, §2

[12] = tested on: Staphylococcus aureus Cowan I (IID 975); assay: MIC, Experiment 1; details: IID975, S. aureus Cowan I (IID 975), Gram +, read-out: Min. inhib. concentr. (MIC)
Description: as §1, §2

Bacillus cereus IAM 1029 = assay: MIC, Experiment 1; details: IAM1029, B. cereus IAM 1029, Gram +, read-out: Min. inhib. concentr. (MIC)
Description: as §1, §2

[13] = tested on: Acinetobacter calcoaceticus Ac 54; assay: MIC, Experiment 1; details: AC54, A. calcoaceticus Ac 54, Gram -, read-out: Min. inhib. concentr. (MIC)
Description: as §1, §2

[14] = tested on: Staphylococcus aureus FDA 209P JC-1; assay: MIC, Experiment 1; details: FDA209P, S. aureus FDA 209P JC-1, Gram +, read-out: Min. inhib. concentr. (MIC)
Description: as §1, §2

[15] = tested on: Proteus mirabilis IFO 3849; assay: MIC, Experiment 1; details: IFO3849, P. mirabilis IFO 3849, Gram -, read-out: Min. inhib. concentr. (MIC)
Description: as §1, §2

[16] = tested on: Staphylococcus aureus FDA 243; assay: MIC, Experiment 1; details: FDA243, S. aureus FDA 243, Gram +, read-out: Min. inhib. concentr. (MIC)
Description: as §1, §2

[17] = tested on: Streptococcus pneumoniae IID 554; assay: MIC, Experiment 1; details: IID554, S. pneumoniae IID 554, Gram +, agar with 5% defibrinated horse blood, read-out: Min. inhib. concentr. (MIC)
Description: as §1, §2

[18] = tested on: Streptococcus pneumoniae IID 552; assay: MIC, Experiment 1; details: IID552, S. pneumoniae IID 552, Gram +, agar with 5% defibrinated horse blood, read-out: Min. inhib. concentr. (MIC)
Description: as §1, §2

[19] = tested on: Staphylococcus aureus MS-353; assay: MIC, Experiment 1; details: MS353, S. aureus MS-353, Gram +, read-out: Min. inhib. concentr. (MIC)
Description: as §1, §2

[20] = tested on: clinically isolated Staphylococcus epidermidis; assay: In vitro antibacterial activity against clinical isolates, Experiment 2; details: Staphylococcus epidermidis, 25 clinical strains S. epidermidis; for MIC50: 50% of strains, read-out: MIC50; for MIC90: 90% of strains, read-out: MIC90
Description: The above solutions were then diluted with sterilized distilled water to prepare a standard solution with a concentration of the test compound: 1000 μg/ml each.
For the preculture of each microorganism, there was used as the medium a sensitivity test broth (manufactured by Nissui Seiyaku K. K., Japan), and for the measurement of MIC, there was used a sensitivity test agar medium (manufactured by Nissui Seiyaku K. K.).
The clinically isolates used above were isolated from Nov. 1988 to Jun. 1989 and were obtained from Research Section, Tokyo Clinical Research Center.

SMILES	MIC [1] [mg/L]	MIC [2] [mg/L]	MIC (Enterobacter cloacae 963) [mg/L]	MIC [3] [mg/L]	MIC [4] [mg/L]	MIC [5] [mg/L]	MIC [6] [mg/L]	MIC [7] [mg/L]	MIC [8] [mg/L]	MIC [9] [mg/L]	MIC [10] [mg/L]	MIC [11] [mg/L]	MIC [12] [mg/L]	MIC (Bacillus cereus IAM 1029) [mg/L]	MIC [13] [mg/L]	MIC [14] [mg/L]	MIC [15] [mg/L]	MIC [16] [mg/L]	MIC [17] [mg/L]	MIC [18] [mg/L]	other results
CN1Cc2csc3c(C(=O)O)c(=O)c4cc(F)c(N5CCC(N(C)C)CC5)c1c4n23 [Compound (H), 9,1-(methylimino)methano-7-fluoro-8-(4-dimethylaminopiperidino)-5-oxo-5H-thiazolo[3,2-a]quinoline-4-carboxylic acid]	0.05 (≈ 0.116 µM)	0.05 (≈ 0.116 µM)	0.39 (≈ 0.906 µM)	0.05 (≈ 0.116 µM)	0.78 (≈ 1.81 µM)	0.1 (≈ 0.232 µM)	0.05 (≈ 0.116 µM)	0.025 (≈ 0.0581 µM)	0.39 (≈ 0.906 µM)	0.05 (≈ 0.116 µM)	0.2 (≈ 0.465 µM)	0.05 (≈ 0.116 µM)	0.05 (≈ 0.116 µM)	0.05 (≈ 0.116 µM)	0.1 (≈ 0.232 µM)	0.1 (≈ 0.232 µM)	0.78 (≈ 1.81 µM)	0.05 (≈ 0.116 µM)	0.05 (≈ 0.116 µM)	0.05 (≈ 0.116 µM)	MIC [19]: 0.1 mg/L (≈ 0.232 µM); MIC [20]: 0.05 to 3.13 mg/L (≈ 0.116 to 7.27 µM); MIC50 [20]: 0.05 mg/L (≈ 0.116 µM); MIC90 [20]: 3.13 mg/L (≈ 7.27 µM)
CN1Cc2csc3c(C(=O)O)c(=O)c4cc(F)c(N5CCC(O)CC5)c1c4n23 [Compound (L), 9,1-(Methylimino)methano-7-fluoro-8-(4-hydroxypiperidino)-5-oxo-5H-thiazolo[3,2-a]quinoline-4-carboxylic acid]	≤ 0.006	≤ 0.006	0.2 (≈ 0.496 µM)	0.025 (≈ 0.062 µM)	0.39 (≈ 0.967 µM)	≤ 0.006	0.013 (≈ 0.0322 µM)	≤ 0.006	0.1 (≈ 0.248 µM)	0.025 (≈ 0.062 µM)	0.1 (≈ 0.248 µM)	0.025 (≈ 0.062 µM)	≤ 0.006	0.013 (≈ 0.0322 µM)	≤ 0.006	0.013 (≈ 0.0322 µM)	0.2 (≈ 0.496 µM)	≤ 0.006	0.05 (≈ 0.124 µM)	0.013 (≈ 0.0322 µM)	MIC [19]: 0.013 mg/L (≈ 0.0322 µM); MIC [20]: 0.006 to 0.39 mg/L (≈ 0.0149 to 0.967 µM); MIC50 [20]: 0.013 mg/L (≈ 0.0322 µM); MIC90 [20]: 0.39 mg/L (≈ 0.967 µM)
CN1Cc2csc3c(C(=O)O)c(=O)c4cc(F)c(N5CCOC(CF)C5)c1c4n23 (stereo not drawn) [Compound (C), 9,1-(Methylimino)methano-7-fluoro-8-(2-fluoromethylmorpholino)-5-oxo-5H-thiazolo[3,2-a]quinoline-4-carboxylic acid]	0.013 (≈ 0.0308 µM)	≤ 0.006	0.2 (≈ 0.475 µM)	0.05 (≈ 0.119 µM)	0.39 (≈ 0.925 µM)	≤ 0.006	0.013 (≈ 0.0308 µM)	≤ 0.006	0.1 (≈ 0.237 µM)	0.05 (≈ 0.119 µM)	0.2 (≈ 0.475 µM)	0.025 (≈ 0.0593 µM)	0.013 (≈ 0.0308 µM)	0.013 (≈ 0.0308 µM)	≤ 0.006	0.013 (≈ 0.0308 µM)	0.2 (≈ 0.475 µM)	≤ 0.006	0.05 (≈ 0.119 µM)	0.025 (≈ 0.0593 µM)	MIC [19]: 0.013 mg/L (≈ 0.0308 µM); MIC [20]: 0.006 to 0.39 mg/L (≈ 0.0142 to 0.925 µM); MIC50 [20]: 0.013 mg/L (≈ 0.0308 µM); MIC90 [20]: 0.39 mg/L (≈ 0.925 µM)
